The results in this text go back to patent publication US7067553B2, “Thiourea compounds and the pharmaceutical compositions containing the same” (Pacific Corporation, priority 2000, dated 2006).

Molecules are shown by their SMILES.

The target in test [1] is T1, vanilloid receptor (Rattus norvegicus, UniProt O35433).
T1 construct: DRG nerve cells from the primary culture of 2–3 days were equilibrated; endogenous in cells; host or cells: primary culture of dorsal root ganglion neurons from neonatal SD rats
T1 sequence (O35433 whole entry): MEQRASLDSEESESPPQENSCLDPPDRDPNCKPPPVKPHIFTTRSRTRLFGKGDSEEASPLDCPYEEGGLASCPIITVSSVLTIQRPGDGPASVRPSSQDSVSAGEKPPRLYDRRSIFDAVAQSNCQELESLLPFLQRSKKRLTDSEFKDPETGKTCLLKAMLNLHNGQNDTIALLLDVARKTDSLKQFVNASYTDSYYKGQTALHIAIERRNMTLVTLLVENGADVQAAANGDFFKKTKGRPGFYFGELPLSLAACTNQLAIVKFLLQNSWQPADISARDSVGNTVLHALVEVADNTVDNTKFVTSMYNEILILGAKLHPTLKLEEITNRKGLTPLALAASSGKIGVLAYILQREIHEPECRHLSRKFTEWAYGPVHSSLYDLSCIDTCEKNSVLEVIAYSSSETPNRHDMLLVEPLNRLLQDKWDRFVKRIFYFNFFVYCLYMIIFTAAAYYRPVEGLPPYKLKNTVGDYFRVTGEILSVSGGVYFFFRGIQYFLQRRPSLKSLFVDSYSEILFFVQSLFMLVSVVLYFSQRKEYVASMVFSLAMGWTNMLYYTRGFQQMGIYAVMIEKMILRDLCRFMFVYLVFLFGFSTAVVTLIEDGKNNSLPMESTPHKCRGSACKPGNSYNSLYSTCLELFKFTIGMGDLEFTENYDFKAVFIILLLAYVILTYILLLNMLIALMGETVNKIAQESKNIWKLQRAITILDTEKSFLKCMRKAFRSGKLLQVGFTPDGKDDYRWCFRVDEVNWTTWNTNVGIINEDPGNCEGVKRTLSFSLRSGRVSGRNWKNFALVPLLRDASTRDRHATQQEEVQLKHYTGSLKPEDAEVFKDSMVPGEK
Briefly: 45Ca influx test (calcium uptake) in cultured DRG neurons, capsaicin-stimulated. The class given is cell-based. The following applies: neonatal SD rat DRG neurons; capsaicin 0.5 μM; 45Ca 10 μCi/ml; 10 min at room temperature; NR: no response. Here is the method:
1) Separation of Spinal Dorsal Root Ganglia (DRG) in Newborn Rats and Primary Culture Thereof
Neonatal(2-day old or younger than 2-day old) SD rats were put in ice for 5 minutes to anesthetize and disinfected with 70% ethanol. DRG of all part of spinal cord were dissected (Wood et al., 1988, J. Neurosci. 8, pp3208–3220) and collected in DME/F12 medium to which 1.2 g/l sodium bicarbonate, 50 mg/l gentamycin were added. The DRG were incubated sequentially at 37° C. for 30 min in 200 U/ml collagenase and 2.5 mg/mil trypsin, separately. The ganglia were washed twice with DME/F12 medium supplemented with 10% horse serum, triturated through a fire-polished Pasteur pipette, filtered through Nitex 40 membrane to obtain single cell suspension. This was subjected to centrifugation, then re-suspended in cell culture medium at certain level of cell density. As the cell culture medium, DME/F12 medium supplemented with 10% horse serum, diluted 1:1 with identical medium conditioned by C6 glioma cells (2 days on a confluent monolayer) was used, and NGF(Nerve Growth Factor) was added to final concentration of 200 ng/ml. After the cells were grown 2 days in medium where cytosine arabinoside (Ara-C, 100 μM) was added to kill dividing nonneuronal cells, medium was changed to one without Ara-C. The resuspended cells were plated at a density of 1500–1700 neurons/well onto Terasaki plates previously coated with 10 μg/ml poly-D-ornithine.
2) ^45Ca Influx Experiments
DRG nerve cells from the primary culture of 2–3 days were equilibrated by washing 4 times with HEPES (10 mM, pH 7.4)-buffered Ca^2+, Mg^2+-free HBSS (H-ABSS). The solution in each well was removed from the individual well. Medium containing the test compound plus capsaicin (final concentration 0.5 μM) and ^45Ca (final concentration 10 μCi/ml) in H-HBSS was added to each well and incubated at room temperature for 10 min. Terasalki plates were washed six times with H-HBSS and dried in an oven. To each well, 0.3% SDS (10 μl) was added to elute ^45Ca. After the addition of […] of scintillation cocktail into each well, the amount of ^45Ca influx into neuron was measured by counting radioactivity.

Test [2] has as its system Male ICR mice. Briefly: Antiinflammatory activity test: TPA-induced mouse ear edema test. The class given is in vivo. The settings on record: dose 1 mg/ear topical; TPA 2.5 μg; ear weight 24 h after TPA. Here is the method:
(4) Antiinflammatory Activity Test: TPA(12-O-tetradecanoylphorbol 13-acetate)-induced Mouse Ear Edema Test
Male ICR mice(body weight 25–30 g), 10 animals/group, were treated topically on the right ear with 30 μl of TPA (2.5 μg) solution in acetone and after 15 min. 30 μl of acetone or test compound solution in acetone was applied topically. After six hours, an identical treatment was applied again. After twenty four hours following the treatment of TPA, the animals were sacrificed and ear tissue was dissected using 6 mm-diameter punch. Ear tissue dissected were weighed to the nearest 0.1 mg on an electrobalance. The increased weight of the tissue compared to control group was considered as an index of inflammation. The percent inhibition is defined by the following equation: % inlibition=(C−T)/C×100, wherein C and T represent an increase of ear weight in TPA-treated and TPA+drug-treated group, respectively.

Test [3] deals with Male ICR mice. Briefly: Analgesic activity test: mouse writhing test by inducing with phenyl-p-quinone. The class given is in vivo. The settings on record: dose 1 mg/kg intraperitoneally 30 min before phenyl-p-quinone; writhes vs control. Here is the method:
(3) Analgesic Activity Test: Mouse Writhing Test by Inducing with Phenyl-p-quinone
Male ICR mice (mean body weight 25 g) were maintained in a controlled lighting environment (12 h on/12 h off for experiment. Animals received an intraperitoneal injection of 0.3 ml of the chemical irritant phenyl-p-quinone (dissolved in saline containing 5% ethanol to be a dose of 4.5 mg/lkg) and 6 min later, the number of abdominal constrictions was counted in the subsequent 6 min period. Animals (10 animals/group) received 0.2 ml of test compounds solution in vehicle of ethanol/Tween 80/saline (10/10/80) intraperitoneally 30 min before the injection of phenyl-p-quinone. A reduction in the number of writhes responding to the test drug compound relative to the number responding in saline control group was considered to be indicative of an analgesic effect. Analgesic effect was calculated by % inhibition equation (% inhibitio=(C−T)/C×100), wherein C and T represent the number of writhes in control and compound-treated group, respectively (Table 2).

Usually IC50 stands for the concentration that inhibits the measured activity by half. For `CC(C)(C)C(=O)OCC(CCc1ccc(C(C)(C)C)cc1)CNC(=S)NCc1ccc(NS(C)(=O)=O)cc1` (stereo not shown) [Example 17], the IC50 in test [1] was determined as 1800 nM.

Turning to `Cc1ccc(CCC(CNC(=S)NCc2ccc(NS(C)(=O)=O)cc2)COC(=O)C(C)(C)C)cc1C` (stereo not shown) [Example 16], the IC50 in test [1] turned out to be 1100 nM.

Consider `CC(C)(C)C(=O)OCC(C/N=C(\S)NCc1ccc(NS(C)(=O)=O)cc1)Cc1ccc(C(C)(C)C)cc1` (stereo not shown) [Example 10], for which the IC50 in test [1] was 2500 nM.

As to `Cc1ccc(CC(CN/C(S)=N/Cc2ccc(NS(C)(=O)=O)cc2)COC(=O)c2ccccc2)cc1C` (stereo not shown) [Example 9], in test [1], the half-maximal inhibitory concentration (IC50) turned out to be 13000 nM.

`COc1cc(C/N=C(\S)NCC(COC(=O)c2ccccc2)Cc2ccc(C(C)(C)C)cc2)ccc1NS(C)(=O)=O` (stereo not shown) [Example 15]: the IC50 in test [1] is greater than 50000 nM.

For the compound `COc1cc(CNC(=S)NCC(COC(=O)C(C)(C)C)Cc2ccc(C)c(C)c2)ccc1NS(C)(=O)=O` (stereo not shown) [Example 12], the “Anti-inflammatory effect (% Inhibition)” value in test [2] turned out to be 41%. The “Analgesic effect (% Inhibition)” value in test [3] is 65%. For the same compound, the IC50 in test [1] amounted to 680 nM.

`COc1cc(CNC(=S)NCC(COC(=O)c2ccccc2)Cc2ccc(C)c(C)c2)ccc1NS(C)(=O)=O` (stereo not shown) [Example 13]: in test [1], the IC50 amounted to 38000 nM.

Take `CC(C)(C)c1ccc(CC(CNC(=S)NCc2ccc(NS(C)(=O)=O)cc2)COC(=O)c2ccccc2)cc1` (stereo not shown) [Example 11]: the IC50 in test [1] was greater than 50000 nM.
